Laboratory results taken from ChEMBL document CHEMBL4806960, “Inhibitors of GPR174 and Uses Thereof” (2020).
The source made the active and inactive calls. The rule behind the calls is not given here.

Tests used:
[1] = target: T1, Probable G-protein coupled receptor 174 (Homo sapiens, UniProt Q9BXC1); assay: Antagonist activity at human GPR174 expressed in cells assessed as inhibition of CRE-luc reporter activity by measuring decrease in Gs-protein signalling activity relative to control; assay type: functional, cell-based; conditions: filed as antagonist
T1 sequence (Q9BXC1 whole entry): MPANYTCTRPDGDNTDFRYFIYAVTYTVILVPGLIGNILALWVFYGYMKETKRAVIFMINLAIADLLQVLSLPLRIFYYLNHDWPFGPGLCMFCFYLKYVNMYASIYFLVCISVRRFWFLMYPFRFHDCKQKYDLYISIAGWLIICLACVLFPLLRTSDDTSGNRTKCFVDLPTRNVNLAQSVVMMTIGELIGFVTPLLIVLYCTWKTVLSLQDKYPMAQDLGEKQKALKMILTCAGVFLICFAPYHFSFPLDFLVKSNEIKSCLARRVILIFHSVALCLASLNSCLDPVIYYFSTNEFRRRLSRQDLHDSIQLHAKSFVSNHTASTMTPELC

[2] = target: T1, Probable G-protein coupled receptor 174; assay: Allosteric modulator activity at human GPR174 expressed in cells assessed as inhibition of CRE-luc reporter activity by measuring decrease in Gs-protein signalling activity relative to control; assay type: functional, cell-based; conditions: filed as […] allosteric modulator
[3] = target: T1, Probable G-protein coupled receptor 174; assay: Inverse agonist activity at human GPR174 expressed in cells assessed as inhibition of CRE-luc reporter activity by measuring decrease in Gs-protein signalling activity relative to control; assay type: functional, cell-based
Splenocyte = assay: Effect on IL-2 production in mouse GPR174 knock out splenocytes at 10 uM measured after 2 days; assay type: functional, cell-based; conditions: time 2.0 day
[4] = target: T1, Probable G-protein coupled receptor 174; assay: Inhibition of GPR174 in anti-CD3/antiCD28-stimulated human PBMC assessed as increase in IFNgamma level measured after 2 days by ELISA; assay type: functional, tissue-based; conditions: time 2.0 day
[5] = target: T1, Probable G-protein coupled receptor 174; assay: Inhibition of human GPR174 in anti-CD3/antiCD28-stimulated human PBMC assessed as non-T cell cell population at 10 uM measured after 2 days relative to control; assay type: functional, tissue-based; parameters: scale not given: the % may be the effect or the level left; conditions: time 2.0 day
[6] = target: T1, Probable G-protein coupled receptor 174; assay: Inhibition of human GPR174 in anti-CD3/antiCD28-stimulated human PBMC assessed as CD8+ cell population at 10 uM measured after 2 days relative to control; assay type: functional, tissue-based; parameters: scale not given: the % may be the effect or the level left; conditions: time 2.0 day
[7] = target: Probable G-protein coupled receptor 174 (Mus musculus) (UniProt Q3U507); assay: Inhibition of mouse GPR174 in anti-CD3/antiCD28-stimulated mouse splenocytes assessed as increase in IL-2 production at 10 uM measured after 2 days; assay type: functional, tissue-based; conditions: Splenocyte, time 2.0 day
Probable G-protein coupled receptor 174 (Mus musculus), sequence (Q3U507 whole entry): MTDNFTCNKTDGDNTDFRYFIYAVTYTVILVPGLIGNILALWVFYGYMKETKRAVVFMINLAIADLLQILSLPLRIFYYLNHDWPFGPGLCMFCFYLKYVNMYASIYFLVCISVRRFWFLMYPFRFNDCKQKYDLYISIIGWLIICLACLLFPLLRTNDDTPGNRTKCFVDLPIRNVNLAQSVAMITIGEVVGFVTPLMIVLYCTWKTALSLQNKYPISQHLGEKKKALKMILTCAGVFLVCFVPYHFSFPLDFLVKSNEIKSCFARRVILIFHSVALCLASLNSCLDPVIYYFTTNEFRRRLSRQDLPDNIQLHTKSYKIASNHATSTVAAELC

[8] = target: T1, Probable G-protein coupled receptor 174; assay: Inhibition of human GPR174 in anti-CD3/antiCD28-stimulated human PBMC assessed as CD4+ cell population at 10 uM measured after 2 days relative to control; assay type: functional, tissue-based; parameters: scale not given: the % may be the effect or the level left; conditions: time 2.0 day
[9] = target: T1, Probable G-protein coupled receptor 174; assay: Inhibition of human GPR174 in anti-CD3/antiCD28-stimulated human regulatory T cells assessed as reduction in CTLA4 expression relative to control; assay type: functional, tissue-based; conditions: T cell, dose 0.19-6 µM
[10] = target: T1, Probable G-protein coupled receptor 174; assay: Inhibition of GPR174 (unknown origin) in cells assessed as incorporation of nuclear localization sequence into transmembrane protein by cellular redistribution assay; assay type: functional
[11] = target: T1, Probable G-protein coupled receptor 174; assay: Inhibition of human GPR174 in anti-CD3/antiCD28-stimulated human PBMC assessed as increase in IL-2 level measured after 2 days by ELISA; assay type: functional, tissue-based; conditions: time 2.0 day
[12] = target: T1, Probable G-protein coupled receptor 174; assay: Inhibition of human GPR174 in anti-CD3/antiCD28-stimulated human PBMC assessed as reduction in AREG expression in CD4+ T cell relative to control; assay type: functional, tissue-based
[13] = target: T1, Probable G-protein coupled receptor 174; assay: Inhibition of human GPR174 in anti-CD3/antiCD28-stimulated human PBMC assessed as increase in natural Treg cells […] at 100 uM measure after 7 days by flow cytometry; assay type: functional, cell-based; conditions: time 7.0 day
[14] = target: T1, Probable G-protein coupled receptor 174; assay: Inhibition of human GPR174 in anti-CD3/antiCD28-stimulated human PBMC assessed as increase in IL-10 production at 10 uM measured after 2 days relative to control; assay type: functional, tissue-based; conditions: time 2.0 day
[15] = target: T1, Probable G-protein coupled receptor 174; assay: Inhibition of human GPR174 in anti-CD3/antiCD28-stimulated human PBMC assessed as reduction in natural Treg cells (FoxP3+Helios+) at 100 uM measure after 7 days by flow cytometry; assay type: functional, cell-based; conditions: time 7.0 day
[16] = target: T1, Probable G-protein coupled receptor 174; assay: Inhibition of human GPR174 in anti-CD3/antiCD28-stimulated CD45RA-FOXP+ human PBMC assessed as reduction in CTLA4 expression measured in non-memory Treg cells relative to control; assay type: functional, cell-based; conditions: dose 0.19-6 µM
[17] = target: T1, Probable G-protein coupled receptor 174; assay: Inhibition of human GPR174 in anti-CD3/antiCD28-stimulated human PBMC assessed as increase in IFNgamma production at 10 uM measured after 2 days relative to control; assay type: functional, tissue-based; conditions: time 2.0 day
[18] = target: T1, Probable G-protein coupled receptor 174; assay: Inhibition of human GPR174 in anti-CD3/antiCD28-stimulated human PBMC assessed as increase in IL-2 production measured after 2 days; assay type: functional, tissue-based; conditions: dose 3-60 µM, time 2.0 day
[19] = target: T1, Probable G-protein coupled receptor 174; assay: Inhibition of human GPR174 in anti-CD3/antiCD28-stimulated human PBMC assessed as increase in IL-6 production at 10 uM measured after 2 days relative to control; assay type: functional, tissue-based; conditions: time 2.0 day
[20] = target: T1, Probable G-protein coupled receptor 174; assay: Inhibition of human GPR174 in anti-CD3/antiCD28-stimulated human PBMC assessed as increase in TNFalpha production at 10 uM measured after 2 days relative to control; assay type: functional, tissue-based; conditions: time 2.0 day
[21] = target: T1, Probable G-protein coupled receptor 174; assay: Inhibition of human GPR174 in anti-CD3/antiCD28-stimulated human PBMC assessed as reduction in TGIT expression in CD8+ T cell relative to control; assay type: functional, tissue-based
[22] = target: T1, Probable G-protein coupled receptor 174; assay: Inhibition of human GPR174 in anti-CD3/antiCD28-stimulated human PBMC assessed as reduction in natural Treg cells (FoxP3+Helios+) measure after 7 days by ELISA; assay type: functional, cell-based; conditions: dose 3-30 µM, time 7.0 day
[23] = target: T1, Probable G-protein coupled receptor 174; assay: Inhibition of human GPR174 in anti-CD3/antiCD28-stimulated human PBMC assessed as reduction in CTLA4 expression relative to control; assay type: functional, tissue-based; conditions: dose 0.19-6 µM
[24] = target: T1, Probable G-protein coupled receptor 174; assay: Inhibition of human GPR174 in anti-CD3/antiCD28-stimulated CD45RA-FOXP+ human PBMC assessed as reduction in CTLA4 expression measured in memory Treg cells relative to control; assay type: functional, cell-based; conditions: dose 0.19-6 µM
[25] = target: T1, Probable G-protein coupled receptor 174; assay: Inhibition of human GPR174 in anti-CD3/antiCD28-stimulated human PBMC assessed as reduction in PD-L1 expression in CD4+ T cell relative to control; assay type: functional, tissue-based

`O=C(N/N=C/c1cc(Cl)ccc1O)c1ccncc1` was tested, and the Activity [1] was “Active” and the Activity [2] was “Active”.

For `Cc1cc(C(=O)N/N=C/c2cc(Br)ccc2O)c(C)o1`, the Activity [1] was “Active” and the Activity [2] was “Active”.

`C=C(C)COc1ccc(NC(=O)Nc2ccccc2)cc1` showed a Ratio [3] of 3.7.

In the case of `Cc1ccccc1Nc1nnc(-c2ccc(C)c(S(N)(=O)=O)c2)c2ccccc12`, the Activity [1] is reported as “Active” and the Activity [2] is reported as “Active”.

For `CC1CCN(c2cc(N3CCN(S(=O)(=O)c4ccccc4)CC3)c([N+](=O)[O-])cc2F)CC1`, the Activity (Splenocyte) was “inactive”, the Activity [4] was “Active” and the Activity [5] was 33.9%. For the same compound, the Activity [6] was 17.1%, the Activity [7] was “Active” and the Activity [8] was 46.2%. The Activity [9] was “Dose-Dependent Effect”, the EC50 [10] was 600 nM and the Activity [11] was “Dose-Dependent Effect”. The Activity [12] was “Dose-Dependent Effect”, the Activity [13] was “Active” and the Activity [14] was “Active”. The Activity [15] was “Active”, the Activity [16] was “Active” and the Activity [17] was “Active”. The Activity [18] was “Dose-Dependent Effect”, the Activity [19] was “Active” and the Activity [20] was “Active”. The Activity [21] was “Dose-Dependent Effect”, the Activity [22] was “Dose-Dependent Effect” and the Activity [23] was “Dose-Dependent Effect”. The Activity [24] was “Active” and the Activity [25] was “Dose-Dependent Effect”.

In the case of `CC(=O)c1ccc(N2CCN(C(=O)c3ccc(F)cc3)CC2)c(F)c1`, the Activity [1] is reported as “Active” and the Activity [2] is reported as “Active”.

With `Cc1ccc(-c2nnc(Nc3ccccc3)c3ccccc23)cc1S(N)(=O)=O` the Activity [1] was “Active” and the Activity [2] was “Active”.

With `CCCC(=O)c1ccc(N2CCN(S(=O)(=O)c3ccc(C)cc3)CC2)c(F)c1` the Activity [1] was “Active”.

In the case of `O=C(c1ccccc1)N1CCN(c2cc(N3CCCCC3)c(F)cc2[N+](=O)[O-])CC1`, the Activity [11] is reported as “Dose-Dependent Effect”.

`Cc1cc(Cc2ccc(NC(=O)c3cccs3)c(C)c2)ccc1NC(=O)c1cccs1` was tested, and the EC50 [10] was 500 nM, the Activity [1] was “Active” and the Activity [2] was “Active”.

Compound `CCOc1ccc(C2C3=C(CCCC3=O)NC3=C2C(=O)c2ccccc23)cn1` (stereo not given) has a Ratio [3] of 3.
